Results published in ChEMBL document CHEMBL1795292, “Discovery of molecules for the treatment of neuropathic pain: synthesis, antiallodynic and antihyperalgesic activities of 5-(4-nitrophenyl)furoic-2-acid hydrazones” (2011).
Calls of active or inactive are those of the source. The calls are words filed in the database; no cut-off is given here.

Test system: Rattus norvegicus
Assay: Antihyperalgesic activity in Wistar albino rat chronic constriction injury-induced neuropathic pain model assessed as attenuation of mechanical pinkprick-induced hyperalgesia after 0.5 to 1.5 at 100 mg/kg, ip
Assay type: functional, organism-based
Set-up: dose 100 mg/kg
Details: not given

Row | Structure (SMILES) | Activity
1 | C/C(=N\NC(=O)c1ccc(-c2ccc([N+](=O)[O-])cc2)o1)c1ccc(C)cc1 | Active

Test system: Rattus norvegicus
Assay: Antiallodynic activity in Wistar albino rat chronic constriction injury-induced neuropathic pain model assessed as attenuation of mechanical allodynia after 1.5 hrs at 100 mg/kg, ip
Assay type: functional, organism-based
Set-up: dose 100 mg/kg
Details: not given

Row | Structure (SMILES) | Activity
2 | COc1cc(/C=N/NC(=O)c2ccc(-c3ccc([N+](=O)[O-])cc3)o2)ccc1O | Active

Test system: Rattus norvegicus
Assay: Antiallodynic activity in Wistar albino rat chronic constriction injury-induced neuropathic pain model assessed as attenuation of cold allodynia after 0.5 to 1 hr at 100 mg/kg, ip
Assay type: functional, organism-based
Set-up: dose 100 mg/kg
Details: not given

Row | Structure (SMILES) | Activity
3 | NC(=O)N1c2ccccc2C=Cc2ccccc21 [CARBAMAZEPINE] | Active

Test system: Rattus norvegicus
Assay: Antihyperalgesic activity in Wistar albino rat chronic constriction injury-induced neuropathic pain model assessed as attenuation of mechanical pinkprick-induced hyperalgesia after 0.5 to 1 at 100 mg/kg, ip
Assay type: functional, organism-based
Set-up: dose 100 mg/kg
Details: not given

Row | Structure (SMILES) | Activity
4 | C/C(=N\NC(=O)c1ccc(-c2ccc([N+](=O)[O-])cc2)o1)c1ccccc1 | Active

Test system: Rattus norvegicus
Assay: Antiallodynic activity in Wistar albino rat chronic constriction injury-induced neuropathic pain model assessed as attenuation of cold allodynia at 100 mg/kg, ip
Assay type: functional, organism-based
Set-up: dose 100 mg/kg
Details: not given

Row | Structure (SMILES) | Activity
5 | Cc1ccc(/C=N/NC(=O)c2ccc(-c3ccc([N+](=O)[O-])cc3)o2)cc1 | inactive
6 | C/C(=N\NC(=O)c1ccc(-c2ccc([N+](=O)[O-])cc2)o1)c1ccc(F)cc1 | inactive
7 | C/C(=N\NC(=O)c1ccc(-c2ccc([N+](=O)[O-])cc2)o1)c1ccc(C)cc1 | inactive
8 | COc1cc(/C=N/NC(=O)c2ccc(-c3ccc([N+](=O)[O-])cc3)o2)ccc1O | inactive

Test system: Rattus norvegicus
Assay: Antiallodynic activity in Wistar albino rat chronic constriction injury-induced neuropathic pain model assessed as reversal of spontaneous pain response after 0.5 hrs at 100 mg/kg, ip
Assay type: functional, organism-based
Set-up: dose 100 mg/kg
Details: not given

Row | Structure (SMILES) | Activity
9 | O=C(N/N=C/c1ccccc1)c1ccc(-c2ccc([N+](=O)[O-])cc2)o1 | Active
10 | O=C(N/N=C/c1ccc([N+](=O)[O-])o1)c1ccc(-c2ccc([N+](=O)[O-])cc2)o1 | Active
11 | COc1ccc(/C=N/NC(=O)c2ccc(-c3ccc([N+](=O)[O-])cc3)o2)cc1 | Active
12 | COc1cc(/C=N/NC(=O)c2ccc(-c3ccc([N+](=O)[O-])cc3)o2)ccc1O | Active
13 | C/C(=N\NC(=O)c1ccc(-c2ccc([N+](=O)[O-])cc2)o1)c1ccccc1 | Active

Test system: Rattus norvegicus
Assay: Antiallodynic activity in Wistar albino rat chronic constriction injury-induced neuropathic pain model assessed as attenuation of cold allodynia measured as paw withdrawal duration at 100 mg/kg, ip
Assay type: functional
Details: route intraperitoneal

Row | Structure (SMILES) | Time
14 | O=C(N/N=C/c1ccccc1)c1ccc(-c2ccc([N+](=O)[O-])cc2)o1 | 2.5 h
15 | O=C(N/N=C/c1ccc([N+](=O)[O-])o1)c1ccc(-c2ccc([N+](=O)[O-])cc2)o1 | 2.5 h
16 | COc1ccc(/C=N/NC(=O)c2ccc(-c3ccc([N+](=O)[O-])cc3)o2)cc1 | 2.5 h
17 | C/C(=N\NC(=O)c1ccc(-c2ccc([N+](=O)[O-])cc2)o1)c1ccccc1 | 2.5 h
18 | C/C(=N\NC(=O)c1ccc(-c2ccc([N+](=O)[O-])cc2)o1)c1ccc(Br)cc1 | 2.5 h
19 | O=C(N/N=C/c1ccc(Br)cc1)c1ccc(-c2ccc([N+](=O)[O-])cc2)o1 | 2.5 h

Test system: Rattus norvegicus
Assay: Antiallodynic activity in Wistar albino rat chronic constriction injury-induced neuropathic pain model assessed as reversal of spontaneous pain response after 1 hrs at 100 mg/kg, ip
Assay type: functional, organism-based
Set-up: dose 100 mg/kg
Details: not given

Row | Structure (SMILES) | Activity
20 | O=C(N/N=C/c1ccc(Br)cc1)c1ccc(-c2ccc([N+](=O)[O-])cc2)o1 | Active

Test system: Rattus norvegicus
Assay: Antiallodynic activity in Wistar albino rat chronic constriction injury-induced neuropathic pain model assessed as reversal of spontaneous pain response up to 2 hrs at 100 mg/kg, ip
Assay type: functional, organism-based
Set-up: dose 100 mg/kg
Details: not given

Row | Structure (SMILES) | Activity
21 | Nc1nnc(-c2cccc(Cl)c2Cl)c(N)n1 | Active

Test system: Rattus norvegicus
Assay: Antiallodynic activity in Wistar albino rat chronic constriction injury-induced neuropathic pain model assessed as reversal of spontaneous pain response at 100 mg/kg, ip
Assay type: functional, organism-based
Set-up: dose 100 mg/kg
Details: not given

Row | Structure (SMILES) | Activity
22 | Cc1ccc(/C=N/NC(=O)c2ccc(-c3ccc([N+](=O)[O-])cc3)o2)cc1 | inactive
23 | C/C(=N\NC(=O)c1ccc(-c2ccc([N+](=O)[O-])cc2)o1)c1ccc(F)cc1 | inactive
24 | C/C(=N\NC(=O)c1ccc(-c2ccc([N+](=O)[O-])cc2)o1)c1ccc(C)cc1 | inactive
25 | C/C(=N\NC(=O)c1ccc(-c2ccc([N+](=O)[O-])cc2)o1)c1ccc(Br)cc1 | inactive

Test system: Rattus norvegicus
Assay: Antihyperalgesic activity in Wistar albino rat chronic constriction injury-induced neuropathic pain model assessed as attenuation of mechanical pinkprick-induced hyperalgesia after 1.5 at 100 mg/kg, ip
Assay type: functional, organism-based
Set-up: dose 100 mg/kg
Details: not given

Row | Structure (SMILES) | Activity
26 | O=C(N/N=C/c1ccccc1)c1ccc(-c2ccc([N+](=O)[O-])cc2)o1 | inactive
27 | Cc1ccc(/C=N/NC(=O)c2ccc(-c3ccc([N+](=O)[O-])cc3)o2)cc1 | Active
28 | O=C(N/N=C/c1ccc([N+](=O)[O-])o1)c1ccc(-c2ccc([N+](=O)[O-])cc2)o1 | Active
29 | C/C(=N\NC(=O)c1ccc(-c2ccc([N+](=O)[O-])cc2)o1)c1ccc(F)cc1 | inactive
30 | COc1cc(/C=N/NC(=O)c2ccc(-c3ccc([N+](=O)[O-])cc3)o2)ccc1O | inactive
31 | C/C(=N\NC(=O)c1ccc(-c2ccc([N+](=O)[O-])cc2)o1)c1ccc(Br)cc1 | inactive

Test system: Rattus norvegicus
Assay: Antiallodynic activity in Wistar albino rat chronic constriction injury-induced neuropathic pain model assessed as attenuation of mechanical allodynia measured as paw withdrawal latency at 100 mg/kg, ip
Assay type: functional
Details: route intraperitoneal

Row | Structure (SMILES) | Time
32 | NCC1(CC(=O)O)CCCCC1 [GABAPENTIN] | 2.5 h
33 | O=C(N/N=C/c1ccccc1)c1ccc(-c2ccc([N+](=O)[O-])cc2)o1 | 2 h
34 | O=C(N/N=C/c1ccc([N+](=O)[O-])o1)c1ccc(-c2ccc([N+](=O)[O-])cc2)o1 | 2.5 h
35 | C/C(=N\NC(=O)c1ccc(-c2ccc([N+](=O)[O-])cc2)o1)c1ccc(C)cc1 | 2.5 h
36 | NC(=O)N1c2ccccc2C=Cc2ccccc21 [CARBAMAZEPINE] | 2.5 h
37 | COc1cc(/C=N/NC(=O)c2ccc(-c3ccc([N+](=O)[O-])cc3)o2)ccc1O | 2.5 h
38 | C/C(=N\NC(=O)c1ccc(-c2ccc([N+](=O)[O-])cc2)o1)c1ccccc1 | 2.5 h
39 | C/C(=N\NC(=O)c1ccc(-c2ccc([N+](=O)[O-])cc2)o1)c1ccc(Br)cc1 | 2.5 h

Test system: Rattus norvegicus
Assay: Antiallodynic activity in Wistar albino rat chronic constriction injury-induced neuropathic pain model assessed as attenuation of cold allodynia after 1 to 2.5 hrs at 100 mg/kg, ip
Assay type: functional, organism-based
Set-up: dose 100 mg/kg
Details: not given

Row | Structure (SMILES) | Activity
40 | NCC1(CC(=O)O)CCCCC1 [GABAPENTIN] | Active

Test system: Rattus norvegicus
Assay: Antiallodynic activity in Wistar albino rat chronic constriction injury-induced neuropathic pain model assessed as attenuation of cold allodynia at 100 mg/kg, ip relative to carbamazepine and lamotrigine
Assay type: functional
Details: route intraperitoneal

Row | Structure (SMILES) | fold change (FC)
41 | O=C(N/N=C/c1ccc(Br)cc1)c1ccc(-c2ccc([N+](=O)[O-])cc2)o1 | 6

Test system: Rattus norvegicus
Assay: Antiallodynic activity in Wistar albino rat chronic constriction injury-induced neuropathic pain model assessed as reversal of spontaneous pain response up to 1 hr at 100 mg/kg, ip
Assay type: functional, organism-based
Set-up: dose 100 mg/kg
Details: not given

Row | Structure (SMILES) | Activity
42 | NC(=O)N1c2ccccc2C=Cc2ccccc21 [CARBAMAZEPINE] | Active

Test system: Rattus norvegicus
Assay: Antiallodynic activity in Wistar albino rat chronic constriction injury-induced neuropathic pain model assessed as attenuation of mechanical allodynia after 0.5 hrs at 100 mg/kg, ip
Assay type: functional, organism-based
Set-up: dose 100 mg/kg
Details: not given

Row | Structure (SMILES) | Activity
43 | C/C(=N\NC(=O)c1ccc(-c2ccc([N+](=O)[O-])cc2)o1)c1ccc(C)cc1 | Active
44 | Nc1nnc(-c2cccc(Cl)c2Cl)c(N)n1 | Active
45 | C/C(=N\NC(=O)c1ccc(-c2ccc([N+](=O)[O-])cc2)o1)c1ccccc1 | Active
46 | C/C(=N\NC(=O)c1ccc(-c2ccc([N+](=O)[O-])cc2)o1)c1ccc(Br)cc1 | Active

Test system: Rattus norvegicus
Assay: Antiallodynic activity in Wistar albino rat chronic constriction injury-induced neuropathic pain model assessed as attenuation of mechanical allodynia at 100 mg/kg, ip
Assay type: functional, organism-based
Set-up: dose 100 mg/kg
Details: not given

Row | Structure (SMILES) | Activity
47 | Cc1ccc(/C=N/NC(=O)c2ccc(-c3ccc([N+](=O)[O-])cc3)o2)cc1 | inactive
48 | C/C(=N\NC(=O)c1ccc(-c2ccc([N+](=O)[O-])cc2)o1)c1ccc(F)cc1 | inactive
49 | COc1ccc(/C=N/NC(=O)c2ccc(-c3ccc([N+](=O)[O-])cc3)o2)cc1 | inactive
50 | O=C(N/N=C/c1ccc(Br)cc1)c1ccc(-c2ccc([N+](=O)[O-])cc2)o1 | inactive

Test system: Rattus norvegicus
Assay: Antiallodynic activity in Wistar albino rat chronic constriction injury-induced neuropathic pain model assessed as reversal of spontaneous pain response at 100 mg/kg, ip relative to gabapentin
Assay type: functional
Details: route intraperitoneal

Row | Structure (SMILES) | fold change (FC)
51 | COc1ccc(/C=N/NC(=O)c2ccc(-c3ccc([N+](=O)[O-])cc3)o2)cc1 | 5

Test system: Rattus norvegicus
Assay: Antiallodynic activity in Wistar albino rat chronic constriction injury-induced neuropathic pain model assessed as reversal of spontaneous pain response measured as withdrawal duration at 100 mg/kg, ip
Assay type: functional
Details: route intraperitoneal

Row | Structure (SMILES) | Time
52 | NCC1(CC(=O)O)CCCCC1 [GABAPENTIN] | 1 h
53 | O=C(N/N=C/c1ccccc1)c1ccc(-c2ccc([N+](=O)[O-])cc2)o1 | 2.5 h
54 | O=C(N/N=C/c1ccc([N+](=O)[O-])o1)c1ccc(-c2ccc([N+](=O)[O-])cc2)o1 | 2.5 h
55 | COc1ccc(/C=N/NC(=O)c2ccc(-c3ccc([N+](=O)[O-])cc3)o2)cc1 | 2.5 h
56 | COc1cc(/C=N/NC(=O)c2ccc(-c3ccc([N+](=O)[O-])cc3)o2)ccc1O | 2.5 h
57 | C/C(=N\NC(=O)c1ccc(-c2ccc([N+](=O)[O-])cc2)o1)c1ccccc1 | 2.5 h
58 | O=C(N/N=C/c1ccc(Br)cc1)c1ccc(-c2ccc([N+](=O)[O-])cc2)o1 | 2.5 h

Test system: Rattus norvegicus
Assay: Antihyperalgesic activity in Wistar albino rat chronic constriction injury-induced neuropathic pain model assessed as attenuation of mechanical pinkprick-induced hyperalgesia up to 2.5 at 100 mg/kg, ip
Assay type: functional, organism-based
Set-up: dose 100 mg/kg
Details: not given

Row | Structure (SMILES) | Activity
59 | COc1ccc(/C=N/NC(=O)c2ccc(-c3ccc([N+](=O)[O-])cc3)o2)cc1 | Active
60 | O=C(N/N=C/c1ccc(Br)cc1)c1ccc(-c2ccc([N+](=O)[O-])cc2)o1 | Active
